# Results taken from patent US9265731B2, “Drying of drug-containing particles” (Bend Research, Inc., priority 2005, dated 2016).
# Assay: In vitro dissolution test (microcentrifuge, PBS pH 6.5, 37° C., HPLC)
# Assay type: physicochemical
# Settings: for Drug 1 Concentration: PBS pH 6.5, 290 mOsm/kg, 37° C., 1000 μg/mL if all drug dissolved
# Method: A sample of the solid amorphous dispersion used in Example 4 was evaluated before and after secondary drying in an in vitro dissolution test to determine the effect of drying on concentration enhancement relative to the crystalline form of Drug 1. As a control, Control 5 consisted of crystalline Drug 1 alone. For this test, a sufficient amount of Dispersion 1 and Control 5 material was added to microcentrifuge test tubes so that the concentration of Drug 1 would have been 1000 μg/mL in both cases if all of the drug had dissolved. The test was performed in duplicate. The tubes were placed in a 37° C. temperature-controlled chamber, and 1.8 mL PBS at pH 6.5 and 290 mOsm/kg was added to each tube. The samples were mixed using a vortex mixer for about 60 seconds. The samples were centrifuged at 13,000 G at 37° C. for 1 minute. The resulting supernatant solution was then sampled and diluted 1:6 (by volume) with methanol and then analyzed by high performance liquid chromatography (HPLC). The contents of each tube were mixed on the vortex mixer and allowed to stand undisturbed at 37° C. until the next sample was taken. Samples were collected at 4, 10, 20, 40, 90, and 1200 minutes.
# The concentrations of drug obtained in these samples were used to determine the maximum concentration of drug (MDC90) and the area under the concentration-versus-time curve (AUC90) during the initial ninety minutes.
# [1] = PBS pH 6.5, 37° C., initial 90 min
smiles,measurement,setting,value
"CCOC(=O)N1c2ccc(C(F)(F)F)cc2[C@@H](N(Cc2cc(C(F)(F)F)cc(C(F)(F)F)c2)C(=O)OC)C[C@H]1CC [Control 5, [2R,4S]4-[(3,5-bistrifluoromethyl-benzyl)-methoxycarbonyl-amino]-2-ethyl-6-trifluoromethyl-3,4-dihydro-2H-quinoline-1-carboxylic acid ethyl ester]",AUC90 (area under the concentration-versus-time curve during the initial ninety minutes),[1],<88 µg·min/mL
same,MDC90 (maximum concentration of drug during the initial ninety minutes),[1],<1 µg/mL
same,AUC,"time 0 min, PBS pH 6.5, 37° C.",0 µg·min/mL
same,Drug 1 Concentration,time 0 min,0 µg/mL
same,AUC,"time 4 min, PBS pH 6.5, 37° C.",<2 µg·min/mL
same,Drug 1 Concentration,time 4 min,<1 µg/mL
same,AUC,"time 10 min, PBS pH 6.5, 37° C.",<8 µg·min/mL
same,Drug 1 Concentration,time 10 min,<1 µg/mL
same,AUC,"time 20 min, PBS pH 6.5, 37° C.",<18 µg·min/mL
same,Drug 1 Concentration,time 20 min,<1 µg/mL
same,AUC,"time 40 min, PBS pH 6.5, 37° C.",<38 µg·min/mL
same,Drug 1 Concentration,time 40 min,<1 µg/mL
same,AUC,"time 90 min, PBS pH 6.5, 37° C.",<88 µg·min/mL
same,Drug 1 Concentration,time 90 min,<1 µg/mL
same,AUC,"time 1200 min, PBS pH 6.5, 37° C.","<1,200 min*μg/mL"
same,Drug 1 Concentration,time 1200 min,<1 µg/mL
